For experiment [1], the target named is M3P6m (I71V mutant of M3P6) (Homo sapiens, UniProt Q5TCQ9, I1085V). It counts as binding.
The next experiment deals with M3P6 (MAGI-3 PDZ6) (Homo sapiens, UniProt Q5TCQ9). Type of experiment: binding. Conditions: for selectivity for M3P6 over N2P2: ratio of Ki values of Table 1; for shift in selectivity towards M3P6: relative to the native peptide, M3P6 vs N2P2.
The target of another experiment is N2P2 (NHERF-2 PDZ2) (Homo sapiens, UniProt Q15599). Kind of experiment: biochemical.

The structures appear in SMILES notation. Peptide text beside a SMILES is read from it. * marks the point of attachment. FITC = O=C1OC2(c3ccc(O)cc3Oc3cc(O)ccc32)c2ccc(NC(=S)*)cc21; Ahx = NCCCCCC(=O)O Where only a bound is given, the exact number is not on record here.

M3P6m (I71V mutant of M3P6), sequence (Q5TCQ9 1040-1149 isoform Q5TCQ9-2 I1110V): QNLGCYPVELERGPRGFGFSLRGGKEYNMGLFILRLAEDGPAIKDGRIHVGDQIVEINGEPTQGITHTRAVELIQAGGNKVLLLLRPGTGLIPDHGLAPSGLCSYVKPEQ
M3P6 (MAGI-3 PDZ6), sequence (Q5TCQ9 1040-1149 isoform Q5TCQ9-2): as the sequence (Q5TCQ9 1040-1149 isoform Q5TCQ9-2 I1110V) above, with V71I counted along it
N2P2 (NHERF-2 PDZ2), sequence (Q15599 143-280): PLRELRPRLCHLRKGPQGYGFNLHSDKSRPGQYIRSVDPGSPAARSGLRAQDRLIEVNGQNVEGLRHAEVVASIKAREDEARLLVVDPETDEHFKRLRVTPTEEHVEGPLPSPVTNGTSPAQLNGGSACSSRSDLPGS

What is called Ki is the equilibrium dissociation constant of an inhibitor or competing ligand from its target. Higher therefore signals lower affinity. Take `CC(C)[C@H](NC(=O)[C@H](CCCNC(=N)N)NC(=O)[C@@H](NC(=O)[C@H](C)NC(=O)[C@H](Cc1ccccc1)NC(=O)[C@@H](N)CC(=O)O)[C@@H](C)O)C(=O)O` [CAR, DFATRV] (H-DFATRV-OH): the Ki in experiment [1] worked out at 285 ± 24.5 µM.
On the same count and under the same terms, under `CC(C)[C@H](NC(=O)[C@@H](NC(=O)[C@@H](NC(=O)[C@H](C)NC(=O)[C@H](Cc1ccccc1)NC(=O)[C@@H](N)CC(=O)O)[C@@H](C)O)[C@@H](C)O)C(=O)O` [CAT, DFATTV] (H-DFATTV-OH) stands 351 ± 17.9 µM; under `CC(C)[C@H](NC(=O)[C@H](CCCNC(=N)N)NC(=O)[C@@H](NC(=O)[C@H](CO)NC(=O)[C@H](Cc1ccccc1)NC(=O)[C@@H](N)CC(=O)O)[C@@H](C)O)C(=O)O` [CSR, DFSTRV] (H-DFSTRV-OH), 510 ± 51.4 µM; under `CC(C)[C@H](NC(=O)[C@@H](NC(=O)[C@@H](NC(=O)[C@H](CO)NC(=O)[C@H](Cc1ccccc1)NC(=O)[C@@H](N)CC(=O)O)[C@@H](C)O)[C@@H](C)O)C(=O)O` [CST, DFSTTV] (H-DFSTTV-OH), 242 ± 17.6 µM.
For the compound `C[C@@H](O)[C@H](N)C(=O)NCC(=O)N[C@@H](CCC(=O)O)C(=O)N[C@H](C(=O)N[C@H](C(=O)N[C@@H](Cc1ccccc1)C(=O)O)[C@@H](C)O)[C@@H](C)O` [FD1, TGETTF] (H-TGETTF-OH), the results for the Ki (at M3P6 (MAGI-3 PDZ6); in experiment [1]) were 600 ± 300 µM and 151 ± 15.9 µM, respectively.
As a reminder, the Kd is the free concentration of one partner at which half of the binding sites on the other are occupied at equilibrium, for simple one-to-one binding. A high value points to lower affinity. `C[C@@H](O)[C@H](NC(=O)[C@H](CO)NC(=O)CNC(=O)[C@H](CO)NC(=O)CNC(=O)CNC(=O)CCCCCNC(=S)Nc1ccc2c(c1)C(=O)OC21c2ccc(O)cc2Oc2cc(O)ccc21)C(=O)N[C@@H](CCCNC(=N)N)C(=O)N[C@@H](Cc1ccccc1)C(=O)O` [FD2 8-mer, FITC-Ahx-GGSGSTRF] ({FITC-Ahx}-GGSGSTRF-OH): the Kd at N2P2 (NHERF-2 PDZ2) amounted to 3.6 ± 0.5 µM.
In turn, `C[C@@H](O)[C@H](NC(=O)[C@H](CO)NC(=O)CNC(=O)[C@@H](N)CO)C(=O)N[C@@H](Cc1c[nH]cn1)C(=O)N[C@@H](Cc1ccccc1)C(=O)O` [FD3, SGSTHF] (H-SGSTHF-OH) came in with a Ki on M3P6 (MAGI-3 PDZ6) of more than 1000 µM.
For the compound `CSCC[C@H](NC(=O)[C@@H](N)CC(C)C)C(=O)N[C@@H](CC(=O)O)C(=O)N[C@@H](CO)C(=O)N[C@H](C(=O)N[C@@H](CC(C)C)C(=O)O)[C@@H](C)O` [LPA2 6-mer, LMDSTL, reference compound] (H-LMDSTL-OH), the Ki on M3P6 (MAGI-3 PDZ6) was found to be 47.4 ± 2.6 µM; in experiment [1], 67.7 ± 5.4 µM.
Regarding `CC(C)[C@H](NC(=O)[C@H](Cc1c[nH]c2ccccc12)NC(=O)[C@@H](NC(=O)[C@H](CCC(=O)O)NC(=O)[C@H](Cc1ccccc1)NC(=O)[C@@H](N)CC(=O)O)[C@@H](C)O)C(=O)O` [RD1, DFETWV] (H-DFETWV-OH), on M3P6 (MAGI-3 PDZ6), the affinity corresponds to a Ki of 1.8 ± 0.5 µM, the “selectivity for M3P6 over N2P2” value is 3 fold and the “shift in selectivity towards M3P6” value amounted to 5 fold.
On the same counts, the results for `CC(C)[C@H](NC(=O)[C@H](Cc1c[nH]c2ccccc12)NC(=O)[C@@H](NC(=O)[C@H](CCC(=O)O)NC(=O)[C@H](Cc1ccccc1)NC(=O)CN)[C@@H](C)O)C(=O)O` [RD2, GFETWV] (H-GFETWV-OH) are 2.7 ± 0.4 µM, 4.6 fold and 8 fold.
The compound `CC(C)[C@H](NC(=O)[C@H](Cc1c[nH]c2ccccc12)NC(=O)[C@@H](NC(=O)[C@H](CC(=O)O)NC(=O)[C@H](Cc1ccccc1)NC(=O)CN)[C@@H](C)O)C(=O)O` [RD3, GFDTWV] (H-GFDTWV-OH) showed a Ki at M3P6 (MAGI-3 PDZ6) of 6.8 ± 1.5 µM.

The record behind these values is article PMC4970318 (Journal of molecular biology, 2014).
